Measurements: patent publication US20230272062A1, “Treatment Of Lung Disease Based Upon Stratification Of Polygenic Score Relating To Response To A Therapeutic Agent” (Regeneron Pharmaceuticals, Inc., priority 2021, published 2023)
Entries after “also recorded” stand apart in the source; their conditions may differ.

Legend:
[1] = Change of FEV1 in dupilumab-treated subjects stratified by FEV1-PS; assay type: in vivo, human; conditions: European subjects
From the text: The covariates were AGE, SEX, STUDYID (study identifier), ICS_FL (taking inhaled corticosteroids at baseline; yes/no), EOSBL_300 FL (eosinophils >300 at baseline), ASMANUM_LOG (exacerbation history for the previous year), HGTBL (height baseline), FEV1BL, and PC1-4 (principal components 1-4). The FEV1-PS was divided into quartiles and ranked from lowest to highest, the number at the bottom of each bar is the number of subjects in each group, and the number inside each bar is the change in FEV1 values at week 12.
The covariates were AGE, SEX, STUDYID, ICS_FL, EOSBL_300 FL, ASMANUM_LOG, HGTBL, FEV1BL, and PC1-4.

[2] = Annualized exacerbation rate in dupilumab-treated subjects stratified by FEV1-PS; assay type: in vivo, human; conditions: European subjects, by FEV1-PS quartile (FIG. 3)
From the text: The covariates were AGE, SEX, STUDYID, ICS_FL, EOSBL_300 FL, ASMANUM_LOG, HGTBL, FEV1BL, and PC1-4. The FEV1-PS was divided into quartiles and ranked from lowest to highest, the number at the bottom of each bar is the number of subjects in each group, and the number inside each bar is the change in annualized exacerbation rate.

dupilumab
longitudinal increase of change of FEV1 ([1]; by FEV1-PS (FIG. 2)): significantly associated with better FEV1 improvement; also recorded: greatest FEV1 improvement | change of FEV1 at week 12 ([1]; by FEV1-PS quartile, compared to placebo-treated patients (FIG. 1)): significantly associated with better FEV1 improvement; also recorded: greatest improvement in FEV1 | annualized exacerbation rates [2]: not associated with differences in annualized exacerbation rates
